According to patent US20070037887A1, “Blockade of mtor to prevent a hormonal adaptive response” (University of Virginia Patent Foundation, priority 2003, published 2007):

Legend:
LTED cells = test: [3H] thymidine incorporation into DNA, LTED cells; type: cell-based, human; conditions: FTS 75 μM, 18 hours
Experimental: FIGS. 5A & 5B represent the effect of FTS on DNA synthesis in MCF-7 (FIG. 5A) and LTED (FIG. 5B) cells. One hundred thousand cells were plated into each well of 24-well plates. Two days later, the cells were re-fed with IMEM containing 5% DCC-FBS. After another two days, cells were treated in quadruplicate with the compounds indicated for 18 hours. [^3H] thymidine (1 μCi/well) was added during the last 2 h of incubation. [^3H] thymidine incorporated into DNA was normalized by protein content.
The inhibitory effect of FTS on cell growth may be the result of inhibition of cellular proliferation, induction of apoptosis, or both. To determine the mechanism by which FTS inhibits cell growth, FTS's effect on DNA synthesis and apoptosis was investigated. […] Estradiol (10^−10 M) increased [^3H] thymidine incorporation by 2.6 fold compared to the control level in MCF-7 cells.

[1] = test system: ERK1/2, Akt, p70S6K, PHAS-1 phosphorylation in LTED cells; test: EGF induced activation of MAP kinase, PI3 kinase and mTOR in LTED cells (Western); type: cell-based, human
From the text: FIG. 8 represents data showing the effect of FTS on EGF induced activation of MAP kinase, PI3 kinase, and mTOR in LTED cells. […] Cells were then harvested and cell lysate prepared. Phosphorylated and total kinases were detected by Western analysis using specific antibodies.
The effects of the specific growth factors, EFG and IGF-1 were also examined. Serum contains multiple growth factors that activate MAP kinase and PI3 kinase either by recruitment and activation of the common mediator Ras (such as EGF) or through a direct mechanism (such as IGF-1). To further explore the site of action of FTS, EGF-induced activation of MAPK and PI3 kinase was first examined. Specific inhibitors for PI3 kinase and mammalian target of rapamycin (mTOR) were included for comparison. […] One-hour treatment was chosen as the time point allowing most efficient comparisons among molecules.

mTOR-raptor complex = target: T1, mTOR-raptor complex (Rattus norvegicus, UniProt P42346+Q8N122); test: Coimmunoprecipitation of raptor with mTOR, compound added to cell extracts or immune complexes; type: binding; conditions: for amount of HA-raptor that coimmunoprecipitated with AU1-mTOR: extracts incubated with increasing concentrations
T1 construct: rows headed: amount of HA-raptor that coimmunoprecipitated with AU1-mTOR; other: extracts incubated with increasing concentrations; amount of HA-raptor that coimmunoprecipitated with AU1-mTOR; other: overexpressed in 293T cells, increasing concentrati; half maximal effect on raptor dissociation from mTOR; other: AU1-mTOR and HA-raptor overexpressed in 293T cells, 1 h; association of AU1-mTOR and HA-rapto
T1 sequence (Q9BVC4 whole entry): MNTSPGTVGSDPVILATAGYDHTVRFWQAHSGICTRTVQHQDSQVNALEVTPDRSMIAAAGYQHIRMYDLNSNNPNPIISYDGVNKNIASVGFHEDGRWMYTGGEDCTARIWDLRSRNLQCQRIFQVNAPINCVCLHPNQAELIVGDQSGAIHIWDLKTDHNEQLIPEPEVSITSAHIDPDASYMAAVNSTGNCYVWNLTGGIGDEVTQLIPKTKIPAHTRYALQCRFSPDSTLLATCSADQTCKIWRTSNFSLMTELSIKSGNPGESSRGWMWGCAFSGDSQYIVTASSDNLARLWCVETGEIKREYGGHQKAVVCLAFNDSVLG
T1 sequence (Q8N122 whole entry): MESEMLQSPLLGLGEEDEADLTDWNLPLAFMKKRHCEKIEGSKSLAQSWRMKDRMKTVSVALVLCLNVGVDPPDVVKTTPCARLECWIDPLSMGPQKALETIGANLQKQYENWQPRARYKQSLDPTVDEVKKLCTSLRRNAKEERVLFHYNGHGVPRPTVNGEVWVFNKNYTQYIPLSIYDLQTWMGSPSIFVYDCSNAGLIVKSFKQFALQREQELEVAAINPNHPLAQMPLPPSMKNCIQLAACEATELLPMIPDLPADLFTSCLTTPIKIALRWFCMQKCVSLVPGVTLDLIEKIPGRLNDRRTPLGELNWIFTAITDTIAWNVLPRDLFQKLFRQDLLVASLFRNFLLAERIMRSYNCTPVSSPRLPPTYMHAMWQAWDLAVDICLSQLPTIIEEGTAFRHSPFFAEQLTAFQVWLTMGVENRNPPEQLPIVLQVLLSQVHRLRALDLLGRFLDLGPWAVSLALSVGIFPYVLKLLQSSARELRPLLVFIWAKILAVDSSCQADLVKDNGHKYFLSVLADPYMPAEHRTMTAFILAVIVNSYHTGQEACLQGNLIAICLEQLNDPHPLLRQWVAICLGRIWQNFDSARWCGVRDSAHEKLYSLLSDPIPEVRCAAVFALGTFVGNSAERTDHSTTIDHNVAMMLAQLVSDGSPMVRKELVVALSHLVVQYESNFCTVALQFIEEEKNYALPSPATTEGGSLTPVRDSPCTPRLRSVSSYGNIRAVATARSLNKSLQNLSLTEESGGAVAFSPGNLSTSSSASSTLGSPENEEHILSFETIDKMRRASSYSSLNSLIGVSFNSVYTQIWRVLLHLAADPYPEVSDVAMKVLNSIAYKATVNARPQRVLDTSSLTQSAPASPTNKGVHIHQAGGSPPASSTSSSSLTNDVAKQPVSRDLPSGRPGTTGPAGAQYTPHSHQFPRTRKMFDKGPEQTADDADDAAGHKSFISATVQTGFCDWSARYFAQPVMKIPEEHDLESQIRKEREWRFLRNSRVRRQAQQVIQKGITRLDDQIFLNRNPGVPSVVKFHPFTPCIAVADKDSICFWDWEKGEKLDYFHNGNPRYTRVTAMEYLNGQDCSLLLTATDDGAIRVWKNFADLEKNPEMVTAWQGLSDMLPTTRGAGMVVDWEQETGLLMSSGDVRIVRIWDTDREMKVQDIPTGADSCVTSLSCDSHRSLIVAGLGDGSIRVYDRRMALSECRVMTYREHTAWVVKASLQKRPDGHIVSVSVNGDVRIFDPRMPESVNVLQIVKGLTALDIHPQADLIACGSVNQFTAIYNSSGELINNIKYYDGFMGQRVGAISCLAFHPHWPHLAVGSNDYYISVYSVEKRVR
Experimental: 293T cells were transfected with pcDNA3 alone (Vec.) or with a combination of pcDNA3AU1-mTOR, pcDNA33HA-Raptor, and pcDNA33HA-mLST8. Extracts of the cells were incubated with increasing concentrations of FTS before AU1-mTOR was immunoprecipated. Samples of the immune complexes were incubated with [γ-^32P]ATP and recombinant [His^6]PHAS-I, then subjected to SDS-PAGE and transferred to an immobilon membrane. After obtaining a phosphorimage of the membrane to detect ^32P-PHAS-I, the membrane was immunoblotted with PThr^36/45 antibodies. Other samples of the immune complexes were subjected to SDS-PAGE and immunoblots were prepared with antibodies to the HA epitope or to mTOR (see FIG. 13A). Extracts of nontransfected 293T cells were incubated with increasing concentrations of FTS before mTOR was immunoprecipated with mTAb1. A control immunoprecipitation was conducted using nonimmune IgG (NI). Immune complexes were subjected to SDS-PAGE and immunoblots were prepared with antibodies to mLST8, mTOR, and raptor.
Samples of extracts from 293T cells overexpressing AU1-mTOR, HA-raptor, and HA-mLST8 were incubated for 1 h with increasing concentrations of FTS (●, ▴, ▪) or GTS (∘, Δ, □) before immunoprecipitations were conducted with anti-AU1 antibodies. mTOR kinase activity (●, ∘) was determined by measuring ^32P incorporation into [His^6]PHAS-I in immune complex kinases assays performed with [γ-^32P]ATP (see FIG. 14A). The relative amounts of HA-raptor (▴, Δ) and HA-mLST8 (▪, □) that coimmunoprecipitated with AU1-mTOR were determined after immunoblotting with anti-HA antibodies (see FIG. 14B). The results (mean values+S.E. from 5 experiments) are expressed as percentages of the mTOR activity (FIG. 14A) or coimmunoprecipitating proteins (FIG. 14B) from samples incubated without FTS or GTS, and have been corrected for the amounts of AU1-mTOR immunoprecipitated.
293T cells were transfected with pcDNA3 alone (Vec.) or with a combination of pcDNA3AU1-mTOR, pcDNA33HARaptor, and pcDNA33HA-mLST8. AU1-mTOR was immunoprecipitated and samples of the washed immune complexes were at incubated […] for 30 min with no inhibitors or with the following: caffeine (1 mM), FTS (50 μM), LY294002 (10 μM), rapamycin (1 μM) plus FKBP12 (10 μM), and 1 μM wortmannin. To prevent destruction of wortmannin, incubations were conducted in the absence of thiol reducing agents. Samples of the immune complexes were incubated for 10 min with 10 mM MnCl2, 1 mM [γ-^32P]ATP, and 50 μg/ml [His^6]PHAS-I to assess mTOR activity. Other samples were rinsed twice, subjected to SDS-PAGE, and immunoblotted with anti-HA and anti-AU1 antibodies to determine the amounts of HA-raptor and HA-mLST8 associated with AU1-mTOR. The relative amounts of ^32P incorporated into PHAS-I were determined by phosphorimaging (see FIG. 15B).

JNK = JNK activation in LTED cells cultured in vitro; type: cell-based, human
From the text: FIGS. 17A & 17B represent data showing the effects of FTS on JNK activation in LETD cells cultured in vitro.
FIGS. 17A & 17B represent data showing the effects of FTS on JNK activation in LTED cells cultured in vitro. […] JNK activation has been reported to be associated with apoptosis.

[2] = pretreatment FTS 1 h, LY 294002 or rapamycin 3 h, EGF 1 μg/ml 1 h

Row | SMILES | [3H] thymidine incorporated into DNA (LTED cells) | growth factor induced Thr229 phosphorylation of p70 S6K ([1]; EGF or IGF-1) | EGF-induced phosphorylation of p70S6K at Thr389 ([1]; FTS even at 50 μM, EGF 1 μg/ml 1 h) | EGF-induced ERK1/2 MAP kinase phosphorylation [1, 2] | EGF-induced phosphorylation of Akt at Ser473 [1, 2] | PHAS-1 Ser65 phosphorylation ([1]; serum starved 24 h, EGF) | association of AU1-mTOR and HA-raptor (mTOR-raptor complex; FTS 50 μM, comparison with other mTOR inhibitors) | amount of HA-raptor that coimmunoprecipitated with AU1-mTOR (mTOR-raptor complex) | JNK activation (JNK)
1 | CC(C)=CCC/C(C)=C/CC/C(C)=C/CSc1ccccc1C(=O)O [FTS, farnesylthiosalicylic acid] | significantly reduced | very limited, if any, inhibition | completely abolished | did not inhibit | neither FTS nor rapamycin blocked | dose-dependently inhibited | decreased | decreased | stimulates JNK activation
2 | CC(C)=CCC/C(C)=C/CSc1ccccc1C(=O)O [GTS, S-geranylthiosalicylic acid, reference compound] | – | – | – | – | – | – | – | progressive decreases | –
